The subject of assay [1] is rat MIA-induced osteoarthritis model. Briefly: Analgesic test by assessment of hindlimb weight distribution in monoiodoacetate (MIA)-induced osteoarthritis model. The class given is in vivo. The note with it: for ED50: Rattus norvegicus, read-out: Difference in weight between the right and left hindlimbs of rats: ED50. As to the method: This disease model was prepared according to the description in Toxicol Pathol 31(6), 619-624 (2003). Female SD rats (6-7 weeks old, Charles River Laboratories Japan, Inc.) were anesthetized with halothane (Takeda Pharmaceutical Company, Limited) and given a single intra-articular injection of 1 mg of monosodium iodoacetate (MIA; Sigma, St. Louis) through the infrapatellar ligament of the right knee. MIA was dissolved with physiological saline and administered in a volume of 50 μL using a 27-gauge, 0.5-inch needle. Three weeks after the injection of MIA (establishment of pathology of osteoarthritis), single oral administration of a ROCK inhibitor or diclofenac was given and the weights of both hindlimbs of the rats were determined using an incapacitance tester (Linton Instrumentation, Norfork, UK) 2 hours after administration of the compounds to obtain ED50 values (Table 1).

Assay [2] deals with bradykinin-induced joint pain model. Briefly: Pain alleviation effect on bradykinin-induced joint pain model. The note with it: for pain score (0-4): 30 min before bradykinin, decreased from 2.6. Format: in vivo, rat. As to the method:
Preparation of the Joint Pain Model and Evaluation of a Level of Pain were conducted based on the description in Folia pharmacol. japon. 92, 17-27 (1988). Female SD rats (6-7 weeks old, Charles River Laboratories Japan, Inc.) were anesthetized with halothane (Takeda Pharmaceutical Company, Limited) and given a single intra-articular injection of a saline solution of Wf536 or Compound 2 into the knee joint cavity of the hindlimb using a 27-gauge, 0.5-inch needle at a dose of 0.03 μg/site, 0.3 μg/site or 3 μg/site. Thirty minutes after administration of the drug, a physiological saline solution of bradykinin was injected into the knee joint cavity of the hindlimb (3 μM/site/50 μl), then the response to pain of the rat after administration of bradykinin was observed. The level of pain was scored as five grade point (0-4) as follows: 0: no lameness to lameness for 10 seconds; 1: lameness for 10 to 30 seconds; 2: lift of the limb within 10 seconds or lameness for 31 or more seconds; 3: three-legged gait within 10 seconds followed by lameness; and 4: three-legged gait for 10 or more seconds followed by lameness. About 10 rat models were used in each experimental group. It was confirmed that administration of bradykinin leads to response to pain scored as about 3.

Assay [3] relates to MIA-induced osteoarthritis model. Briefly: Cartilage damage score of the distal end of the tibia in MIA-induced osteoarthritis model. Format: in vivo, rat. The conditions noted are these: for score of morphological change of the distal end of the tibia (0-4): three weeks after injection, decreased from 3. As to the method: This disease model was prepared according to the description in Toxicol Pathol 31 (6), 619-624 (2003). Female SD rats (6-7 weeks old, Charles River Laboratories Japan, Inc.) were anesthetized with halothane (Takeda Pharmaceutical Company, Limited) and given a single intra-articular injection of 1 mg of monosodium iodoacetate (MIA; Sigma, St. Louis) through the intrapatellar ligament of the right knee. MIA was dissolved with physiological saline and administered in a volume of 50 μL using a 27-gauge, 0.5-inch needle. Three weeks after the injection, a tibia was isolated and morphological change of the distal end of the tibia was scored (0-4; FIG. 1). About 8 rats were used for each group. Three weeks after the injection of MIA, cartilage damage of about score 3 was confirmed. Wf536 or Compound 2 was injected intra-articularly at a concentration of 0.03 μg/site, 0.3 μg/site or 3 μg/site 2 times a week (every 2 to 3 days) from the day of administration of MIA. […] 0: no damage; 1: damage on the surface of cartilage; 2: cartilage degradation; 3: cartilage degradation and subchondral bone damage; 4: cartilage degradation, subchondral bone damage and spur formation.

Where [4] appears, read: female SD rats, single oral administration three weeks after MIA injection, measured 2 hours after administration.

Molecules are shown by their SMILES. Bounds are passed on as bounds.

Six compounds from patent publication US20090029970A1, “PAIN REMEDY CONTAINING ROCK INHIBITOR” (Astellas Pharma Inc., priority 2005, published 2009) can be followed below.

What is called ED50 is the dose at which the effect has come halfway, by size or by number of responders.

For `NC(=O)c1cc(F)c(N[C@H]2CC[C@H](N)CC2)cc1F` [Compound 1, 4-[(trans-4-aminocyclohexyl)amino]-2,5-difluorobenzamide], the ED50 in assay [1] (setting [4]) is less than 10 mg/kg.

For the compound `NC(=O)c1cc(Cl)c(N[C@H]2CC[C@H](N)CC2)cc1F` [Compound 2, 4-[(trans-4-aminocyclohexyl)amino]-5-chloro-2-fluorobenzamide], the ED50 in assay [1] (setting [4]) was less than 10 mg/kg. Also, the “pain score (0-4)” value in assay [2] (single intra-articular injection 0.3 μg/site) came out at 1.1. Also, the “score of morphological change of the distal end of the tibia (0-4)” value in assay [3] (intra-articular 0.3 μg/site 2 times a week from the day of MIA) came to 2.3.

Regarding `CC(C)(N)c1ccc(-c2ccc3[nH]ncc3c2)cc1.Cl.Cl` [Compound 3, 2-[4-(1H-indazol-5-yl)phenyl]-2-propanamine dihydrochloride], the ED50 in assay [1] (setting [4]) was less than 10 mg/kg.

`O=C(O)Cc1ccccc1Nc1c(Cl)cccc1Cl` [Diclofenac]: the ED50 in assay [1] (setting [4]) is greater than 30 mg/kg. The “efficacy on pain (in words)” value in assay [1] (single dose given after establishment of the disease in the rat MIA-induced osteoarthritis model) is “ineffective”.

As for `Cl.O=S(=O)(c1cccc2cnccc12)N1CCCNCC1` [Fasudil, 5-(hexahydro-1H-1,4-diazepin-1-ylsulfonyl)isoquinoline hydrochloride], the ED50 in assay [1] (setting [4]) was less than 10 mg/kg.

As to `C[C@@H](N)c1ccc(C(=O)Nc2ccncc2)cc1.Cl` [Wf536, 4-[(1R)-1-aminoethyl]-N-(4-piridyl)benzamide monohydrochloride], in assay [1] (setting [4]), the “Difference in weight between the right and left hindlimbs of rats: ED50” value is less than 30 mg/kg. In assay [2] (intra-articular 0.03, 0.3 or 3 μg/site), the “response to pain (in words)” value is “dose-dependently improved the response to pain”. Besides, the “pain score (0-4)” value in assay [2] (single intra-articular injection 3 μg/site) is reported as 1.2. Besides, in assay [3] (intra-articular 3 μg/site 2 times a week from the day of MIA), the “score of morphological change of the distal end of the tibia (0-4)” value is given as 2.2. Further, the “MIA-induced cartilage damage (in words)” value in assay [3] (intra-articular 0.03, 0.3 or 3 μg/site 2 times a week, three weeks) is recorded as “dose-dependently improved the MIA-induced cartilage damage”.
